Key:
AMBEL (Ragweed, Common) = assay: Preemergence herbicidal evaluation; assay type: in vivo, Ambrosia artemisifolia; conditions: rated 4-5 weeks after treatment; for AMBEL rating: preemergence, 0-9 scale
In short: (§1)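 Seeds were mixed with potting soil and planted on about one inch of soil, then sprayed with test compound in aqueous acetone at about 0.0156 to 0.500 kg per hectare. Plants grew under standard greenhouse care and were visually rated 0-9 against untreated controls 4-5 weeks post-treatment.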

GALAP (Galium) = assay: Preemergence herbicidal evaluation; assay type: in vivo, Galium aparine; conditions: rated 4-5 weeks after treatment; for GALAP rating: preemergence, 0-9 scale
In short: as §1

SETVI (Foxtail, Green) [1] = assay: Preemergence herbicidal evaluation; assay type: in vivo, Setaria viridis; conditions: rated 4-5 weeks after treatment; for SETVI rating: preemergence, 0-9 scale
In short: as §1

SETVI (Foxtail, Green) [2] = assay: Postemergence herbicidal evaluation; assay type: in vivo, Setaria viridis; conditions: for SETVI herbicidal rating: postemergence
In short: (§2)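 Compound is applied as a foliar spray to seedlings about two weeks old, formulated in equal parts acetone and water with 0.5% TWEEN 20 and delivered at 40 psi to give about 0.0156–0.500 kg per hectare. Injury is rated visually 0–9 after four to five weeks.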

[3] = test system: GLXMAW (Soybean, Williams); assay: Postemergence herbicidal evaluation; assay type: in vivo, Glycine max, (L.) Merr. cv Williams; conditions: for GLXMAW herbicidal rating: postemergence
In short: as §2

[4] = test system: ECHORC (Watergrass (Calif.)); assay: Postemergence weed control under flooded paddy conditions; assay type: in vivo, Echinochloa oryzoides; conditions: postemergence weeds
In short: (§3)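 With weeds 3 to 5 cm tall and rice at the 1.5 to 2.5 leaf stage, containers were flooded and water held 1.5 to 3 cm above soil. Compounds in 50/50 v/v aqueous/acetone went into the flood water at about 0.0313 to 0.500 kg/ha a.i. Effects were visually rated 0–9 against controls after three to four weeks in the greenhouse.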

[5] = test system: CHEAL (Lambsquarters, Common); assay: Postemergence herbicidal evaluation; assay type: in vivo, Chenopodium album; conditions: for CHEAL herbicidal rating: postemergence
In short: as §2

ZEAMX (Corn, Field) = assay: Postemergence herbicidal evaluation; assay type: in vivo, Zea mays; conditions: for ZEAMX herbicidal rating: postemergence
In short: as §2

CYPSE (Flatsedge) = assay: Postemergence weed control under flooded paddy conditions; assay type: in vivo, Cyperus serotinus; conditions: postemergence weeds
In short: as §3

ORYSAT (Rice, Tebonnet) = assay: Postemergence herbicidal evaluation; assay type: in vivo, Oryza sativa, (L.) Tebonnet; conditions: for ORYSAT herbicidal rating: postemergence
In short: as §2

[6] = test system: SAGPY (Arrowhead (Pygmaea)); assay: Postemergence weed control under flooded paddy conditions; assay type: in vivo, Sagittaria pygmaea; conditions: postemergence weeds
In short: as §3

[7] = test system: TRZAWR (Wheat, Winter, cv Riband); assay: Postemergence herbicidal evaluation; assay type: in vivo, Triticum aestivum; conditions: for TRZAWR herbicidal rating: postemergence
In short: as §2

ABUTH (Velvetleaf) = assay: Postemergence herbicidal evaluation; assay type: in vivo, Abutilon theophrasti; conditions: for ABUTH herbicidal rating: postemergence
In short: as §2

CYPIR (Rice Flatsedge) = assay: Preemergence weed control under flooded paddy conditions; assay type: in vivo, Cyperus iria; conditions: rated 3-4 weeks after treatment
In short: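 Seeds or propagules sown in top 0.5 cm of silt loam soil, flooded 1.5 to 3 cm above surface throughout. Compound in 50/50 v/v aqueous/acetone pipetted into flood water at about 0.0313 to 0.500 kg/ha. Visual 0-9 rating versus control after three to four weeks in greenhouse.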

[8] = Rate 0.0313 kg/ha, rated 3 to 4 weeks after treatment
[9] = Rate 0.0625 kg/ha, rated 3 to 4 weeks after treatment
[10] = Rate 0.1250 kg/ha, rated 3 to 4 weeks after treatment
[11] = Rate 0.2500 kg/ha, rated 3 to 4 weeks after treatment
[12] = rate 0.0313 kg/ha, 3-4 weeks after treatment
[13] = rate 0.0625 kg/ha, 3-4 weeks after treatment
[14] = rate 0.1250 kg/ha, 3-4 weeks after treatment
[15] = rate 0.2500 kg/ha, 3-4 weeks after treatment

C#CCOC(=O)CC1SC(=Nc2cc(-n3c(=O)cc(C(F)(F)F)n(C)c3=O)c(F)cc2Cl)N(C)C1=O (stereo not shown) [Compound 90, 2-Propynyl 2-{{2-chloro-5-[3,6-dihydro-3-methyl-2,6-dioxo-4-(trifluoromethyl)-1(2H)-pyrimidinyl]-4-fluorophenyl}imino}-3-methyl-4-oxo-5-thiazolidineacetate]
7.0: GALAP rating (GALAP (Galium); 0.2500 kg/ha) | CHEAL herbicidal rating ([5]; rate 0.0315 kg/ha) | TRZAWR herbicidal rating ([7]; rate 0.0315 kg/ha)
6.0: Herbicidal rating SAGPY [6, 9]
5.5: TRZAWR herbicidal rating ([7]; rate 0.0158 kg/ha)
0.0: AMBEL rating (AMBEL (Ragweed, Common); 0.0313 kg/ha) | GALAP rating (GALAP (Galium); 0.0313 kg/ha) | GALAP rating (GALAP (Galium); 0.0625 kg/ha) | SETVI rating (SETVI (Foxtail, Green) [1]; 0.0313 kg/ha) | Herbicidal rating ECHORC [4, 8] | Herbicidal rating ECHORC [4, 9] | Herbicidal rating ECHORC [4, 10] | Herbicidal rating CYPSE (CYPSE (Flatsedge); [8]) | Herbicidal rating CYPSE (CYPSE (Flatsedge); [9]) | Herbicidal rating CYPSE (CYPSE (Flatsedge); [10]) | CYPIR herbicidal effect rating (CYPIR (Rice Flatsedge); 0.0313 kg/ha) | CYPIR herbicidal effect rating (CYPIR (Rice Flatsedge); 0.0625 kg/ha)
9.0: AMBEL rating (AMBEL (Ragweed, Common); 0.1250 kg/ha) | AMBEL rating (AMBEL (Ragweed, Common); 0.2500 kg/ha) | SETVI rating (SETVI (Foxtail, Green) [1]; 0.1250 kg/ha) | SETVI rating (SETVI (Foxtail, Green) [1]; 0.2500 kg/ha) | SETVI herbicidal rating (SETVI (Foxtail, Green) [2]; rate 0.0158 kg/ha) | SETVI herbicidal rating (SETVI (Foxtail, Green) [2]; rate 0.0315 kg/ha) | SETVI herbicidal rating (SETVI (Foxtail, Green) [2]; rate 0.0630 kg/ha) | GLXMAW herbicidal rating ([3]; rate 0.0158 kg/ha) | GLXMAW herbicidal rating ([3]; rate 0.0315 kg/ha) | GLXMAW herbicidal rating ([3]; rate 0.0630 kg/ha) | CHEAL herbicidal rating ([5]; rate 0.0630 kg/ha) | ZEAMX herbicidal rating (ZEAMX (Corn, Field); rate 0.0630 kg/ha) | Herbicidal rating SAGPY [6, 10] | Herbicidal rating SAGPY [6, 11] | ABUTH herbicidal rating (ABUTH (Velvetleaf); rate 0.0158 kg/ha) | ABUTH herbicidal rating (ABUTH (Velvetleaf); rate 0.0315 kg/ha) | ABUTH herbicidal rating (ABUTH (Velvetleaf); rate 0.0630 kg/ha)
4.0: ORYSAT herbicidal rating (ORYSAT (Rice, Tebonnet); rate 0.0158 kg/ha) | Herbicidal rating SAGPY [6, 8]
3.0: AMBEL rating (AMBEL (Ragweed, Common); 0.0625 kg/ha) | GALAP rating (GALAP (Galium); 0.1250 kg/ha) | SETVI rating (SETVI (Foxtail, Green) [1]; 0.0625 kg/ha) | Herbicidal rating ECHORC [4, 11] | Herbicidal rating CYPSE (CYPSE (Flatsedge); [11]) | CYPIR herbicidal effect rating (CYPIR (Rice Flatsedge); 0.2500 kg/ha)
6.5: ORYSAT herbicidal rating (ORYSAT (Rice, Tebonnet); rate 0.0315 kg/ha) | ORYSAT herbicidal rating (ORYSAT (Rice, Tebonnet); rate 0.0630 kg/ha)
1.0: CYPIR herbicidal effect rating (CYPIR (Rice Flatsedge); 0.1250 kg/ha)
8.0: ZEAMX herbicidal rating (ZEAMX (Corn, Field); rate 0.0158 kg/ha)
7.5: TRZAWR herbicidal rating ([7]; rate 0.0630 kg/ha)
5.0: CHEAL herbicidal rating ([5]; rate 0.0158 kg/ha)
8.5: ZEAMX herbicidal rating (ZEAMX (Corn, Field); rate 0.0315 kg/ha)

CCOC(=O)CN1C(=O)C(CC(=O)OC)S/C1=N/c1cc(-n2c(=O)cc(C(F)(F)F)n(C)c2=O)c(F)cc1Cl (stereo not shown) [Compound 54, 2-{{2-Chloro-5-[3,6-dihydro-3-methyl-2,6-dioxo-4-(trifluoromethyl)-1(2H)-pyrimidinyl]-4-fluorophenyl}imino}-4-oxo-3,5-thiazolidinediacetic acid, 3-ethyl methyl ester]
5.0: Herbicidal rating ECHORC [4, 12] | Herbicidal rating ECHORC [4, 13] | Postemergence herbicidal rating TRZAWR ([7]; Rate 0.0158 kg/ha)
7.5: Postemergence herbicidal rating ZEAMX (ZEAMX (Corn, Field); Rate 0.0158 kg/ha)
0.0: Preemergence herbicidal rating AMBEL (AMBEL (Ragweed, Common); rate 0.0156 kg/ha) | Preemergence herbicidal rating GALAP (GALAP (Galium); rate 0.0156 kg/ha) | Preemergence herbicidal rating GALAP (GALAP (Galium); rate 0.0313 kg/ha) | Preemergence herbicidal rating GALAP (GALAP (Galium); rate 0.0625 kg/ha) | Herbicidal rating CYPSE (CYPSE (Flatsedge); [12]) | Herbicidal rating CYPSE (CYPSE (Flatsedge); [13]) | Herbicidal rating CYPSE (CYPSE (Flatsedge); [14]) | Herbicidal rating SAGPY [6, 12] | Herbicidal rating SAGPY [6, 13] | Herbicidal rating SAGPY [6, 14] | Herbicidal rating CYPIR (CYPIR (Rice Flatsedge); 0.0313 kg/ha)
3.0: Postemergence herbicidal rating ORYSAT (ORYSAT (Rice, Tebonnet); Rate 0.0158 kg/ha) | Postemergence herbicidal rating ORYSAT (ORYSAT (Rice, Tebonnet); Rate 0.0315 kg/ha)
9.0: Preemergence herbicidal rating AMBEL (AMBEL (Ragweed, Common); rate 0.1250 kg/ha) | Preemergence herbicidal rating AMBEL (AMBEL (Ragweed, Common); rate 0.2500 kg/ha) | Preemergence herbicidal rating AMBEL (AMBEL (Ragweed, Common); rate 0.5000 kg/ha) | Preemergence herbicidal rating GALAP (GALAP (Galium); rate 0.1250 kg/ha) | Preemergence herbicidal rating GALAP (GALAP (Galium); rate 0.2500 kg/ha) | Preemergence herbicidal rating SETVI (SETVI (Foxtail, Green) [1]; rate 0.2500 kg/ha) | Preemergence herbicidal rating SETVI (SETVI (Foxtail, Green) [1]; rate 0.5000 kg/ha) | Postemergence herbicidal rating SETVI (SETVI (Foxtail, Green) [2]; Rate 0.0158 kg/ha) | Postemergence herbicidal rating SETVI (SETVI (Foxtail, Green) [2]; Rate 0.0315 kg/ha) | Postemergence herbicidal rating SETVI (SETVI (Foxtail, Green) [2]; Rate 0.0630 kg/ha) | Postemergence herbicidal rating GLXMAW ([3]; Rate 0.0158 kg/ha) | Postemergence herbicidal rating GLXMAW ([3]; Rate 0.0315 kg/ha) | Postemergence herbicidal rating GLXMAW ([3]; Rate 0.0630 kg/ha) | Herbicidal rating ECHORC [4, 15] | Postemergence herbicidal rating CHEAL ([5]; Rate 0.0158 kg/ha) | Postemergence herbicidal rating CHEAL ([5]; Rate 0.0315 kg/ha) | Postemergence herbicidal rating CHEAL ([5]; Rate 0.0630 kg/ha) | Postemergence herbicidal rating ZEAMX (ZEAMX (Corn, Field); Rate 0.0630 kg/ha) | Postemergence herbicidal rating TRZAWR ([7]; Rate 0.0630 kg/ha) | Postemergence herbicidal rating ABUTH (ABUTH (Velvetleaf); Rate 0.0158 kg/ha) | Postemergence herbicidal rating ABUTH (ABUTH (Velvetleaf); Rate 0.0315 kg/ha) | Postemergence herbicidal rating ABUTH (ABUTH (Velvetleaf); Rate 0.0630 kg/ha)
7.0: Preemergence herbicidal rating SETVI (SETVI (Foxtail, Green) [1]; rate 0.1250 kg/ha) | Herbicidal rating ECHORC [4, 14] | Postemergence herbicidal rating TRZAWR ([7]; Rate 0.0315 kg/ha)
4.0: Herbicidal rating CYPSE (CYPSE (Flatsedge); [15]) | Herbicidal rating CYPIR (CYPIR (Rice Flatsedge); 0.0625 kg/ha) | Herbicidal rating CYPIR (CYPIR (Rice Flatsedge); 0.1250 kg/ha) | Herbicidal rating CYPIR (CYPIR (Rice Flatsedge); 0.2500 kg/ha)
2.0: Preemergence herbicidal rating SETVI (SETVI (Foxtail, Green) [1]; rate 0.0313 kg/ha) | Herbicidal rating SAGPY [6, 15]
1.0: Preemergence herbicidal rating SETVI (SETVI (Foxtail, Green) [1]; rate 0.0156 kg/ha)
3.5: Preemergence herbicidal rating SETVI (SETVI (Foxtail, Green) [1]; rate 0.0625 kg/ha)
8.0: Preemergence herbicidal rating AMBEL (AMBEL (Ragweed, Common); rate 0.0625 kg/ha) | Postemergence herbicidal rating ZEAMX (ZEAMX (Corn, Field); Rate 0.0315 kg/ha)
6.5: Postemergence herbicidal rating ORYSAT (ORYSAT (Rice, Tebonnet); Rate 0.0630 kg/ha)
0.5: Preemergence herbicidal rating AMBEL (AMBEL (Ragweed, Common); rate 0.0313 kg/ha)
